Measured values from publication PMC10672842, “Anti-Trypanosoma cruzi Activity, Mutagenicity, Hepatocytotoxicity and Nitroreductase Enzyme Evaluation of 3-Nitrotriazole, 2-Nitroimidazole and Triazole Derivatives” (Molecules, 2023).
Read-outs that look alike come from different tables or passages of the source.

What was measured:
S. typhimurium TA98 = assay: Salmonella reverse mutation assay (Ames test, preincubation), TA98
Method: (§1) The compounds were tested in a reverse mutation assay preincubation protocol in the absence and presence of metabolic activation following standard protocols previously proposed by Maron and Ames. The histidine-dependent (his^−) strains TA98 and TA100 of Salmonella typhimurium were inoculated in 10 mL of Oxoid nutrient broth No. 2 containing 25 µg/mL ampicillin and incubated overnight (15–18 h) at 37 ± 1 °C on an orbital shaker (CT-712, Cientec, Belo Horizonte, MG, Brazil) at 150 rpm, obtaining a concentration of 1–2 × 10^9 cells/mL, confirmed by titration in nutrient agar plates. Briefly, 100 µL of stationary growth cultures of each strain were preincubated for 20 min on an orbital shaker (150 rpm) at 37 ± 1 °C, with 500 µL of 0.2 M phosphate buffer pH 7.4, or 500 µL of S9 mix 4% (Molecular Toxicology, Baltimore, MD, USA), and 100 µL of compound dilutions (0–5000 µM) or controls. DMSO 1% was used as a negative control. […] After incubation, 2 mL of top agar (0.7% agar, 0.5% NaCl, 0.05 mM L-histidine and D-biotin) at 45 ± 3 °C was added and gently mixed. The final mixture was poured on glucose minimal agar plates (1.5% agar, 10 g/L MgSO4·7H2O; 100 g/L of C6H8O7·H2O; 500 g/L K2HPO4; 175 g/L Na(NH4)HPO4·4H2O, 2% glucose) and incubated for 72 h at 37 ± 1 °C. The results were expressed as the mean of revertant colonies (His^+) per plate, standard deviation (SD) and mutagenicity induction fold (IF), calculated as the ratio between the number of colonies in the test group and the number of colonies in the negative control group. Mutagenic potency was calculated as the slope of the linear portion of the concentration–response function and expressed as revertants/µM. All assays were performed in triplicate and repeated at least two times. Statistical analyses were carried out in GraphPad Prism software (version 5.00, GraphPad Software, Boston, MA, USA).

[1] = tested on: T. cruzi (Tulahuen strain); assay: In vitro anti-T. cruzi evaluation in an intracellular model (trypomastigote and amastigote forms, L929 host cells, β-galactosidase readout); assay type: cell-based, Trypanosoma cruzi
Method: Derivatives 5–10 were evaluated in vitro against T. cruzi in an intracellular model on the trypomastigote and amastigote forms of the parasite of the Tulahuen strain [20]. This model is interesting because it mimics the life cycle of the parasite, as both clinically relevant forms are present in the environment. The mammalian host cells used were fibroblasts from L929 mice.
This assay was performed as previously described by Buckner et al. (1996) using T. cruzi (Tulahuen strain), which expresses the β-galactosidase gene of Escherichia coli. Infectious trypomastigote forms were obtained by culturing fibroblast monolayers of L929 mice in RPMI-1640 medium (pH 7.2–7.4) without phenol red (Gibco BRL), containing 10% fetal bovine serum and 2 mM glutamine. For the bioassay, 4000 L929 cells in 80 µL of supplemented medium were added to each well of a 96-well microtiter plate. After overnight incubation, 40,000 trypomastigotes in 20 µL were added to the cells and incubated for 2 h. […] The medium was then replaced with compound solutions at 1.0 µg/mL in fresh medium (200 µL), and the plate was incubated for 96 h at 37 °C. After this period, 50 µL of chlorophenol D-galactopyranoside red (500 µM) in 0.5% Nonidet P40 was added to each well, and the plate was incubated for 18 h at 37 °C. After this, the absorbance was measured at 570 nm. Controls with uninfected cells and infected cells treated with benznidazole were performed in parallel. The results are expressed as the percentage of T. cruzi growth inhibition in cells tested with compost compared to infected and untreated cells. The tests were performed in triplicate.

S. typhimurium TA100 = tested on: S. typhimurium TA100
Method: as §1

Q: Which results are given for `O=C(Cn1ccnc1[N+](=O)[O-])NCc1ccccc1` [BZN, benznidazole, reference compound]?
A: IF (induction factor) (S. typhimurium TA98; TA98, +S9, 0.5 µM): 0.9; revertant His+ colonies, mean ± SD (S. typhimurium TA98; TA98, +S9, 0.5 µM): 21 ± 2; IF (induction factor) (S. typhimurium TA98; TA98, +S9, 5 µM): 0.9; revertant His+ colonies, mean ± SD (S. typhimurium TA98; TA98, +S9, 5 µM): 17 ± 2; IF (induction factor) (S. typhimurium TA98; TA98, +S9, 50 µM): 0.7; revertant His+ colonies, mean ± SD (S. typhimurium TA98; TA98, +S9, 50 µM): 18 ± 1; IF (induction factor) (S. typhimurium TA98; TA98, +S9, 500 µM): 1.3; revertant His+ colonies, mean ± SD (S. typhimurium TA98; TA98, +S9, 500 µM): 31 ± 6; IF (induction factor) (S. typhimurium TA98; TA98, +S9, 5000 µM): 1.4; revertant His+ colonies, mean ± SD (S. typhimurium TA98; TA98, +S9, 5000 µM): 33 ± 4; IF (induction factor) (S. typhimurium TA98; TA98, −S9, 0.5 µM): 1.1; revertant His+ colonies, mean ± SD (S. typhimurium TA98; TA98, −S9, 0.5 µM): 28 ± 6; IF (induction factor) (S. typhimurium TA98; TA98, −S9, 5 µM): 1.1; revertant His+ colonies, mean ± SD (S. typhimurium TA98; TA98, −S9, 5 µM): 28 ± 4; IF (induction factor) (S. typhimurium TA98; TA98, −S9, 50 µM): 1.1; revertant His+ colonies, mean ± SD (S. typhimurium TA98; TA98, −S9, 50 µM): 28 ± 2; IF (induction factor) (S. typhimurium TA98; TA98, −S9, 500 µM): 1.4; revertant His+ colonies, mean ± SD (S. typhimurium TA98; TA98, −S9, 500 µM): 37 ± 5; IF (induction factor) (S. typhimurium TA98; TA98, −S9, 5000 µM): 2.5; revertant His+ colonies, mean ± SD (S. typhimurium TA98; TA98, −S9, 5000 µM): 67 ± 4; IC50 ([1]; Trypanosoma cruzi, TULAHUEN, L929, 96 h, read-out: IC50 T. cruzi): 1.5 ± 0.4 µM; SI ([1]; selectivity index, L929 cells vs T. cruzi): 1409; Mutagenic potency (slope of the linear portion of the concentration–response function) (S. typhimurium TA100; TA100, +S9): 1382.2 revertants/µM; IF (induction factor) (S. typhimurium TA100; TA100, +S9, 0.5 µM): 0.9; revertant His+ colonies, mean ± SD (S. typhimurium TA100; TA100, +S9, 0.5 µM): 95 ± 3; IF (induction factor) (S. typhimurium TA100; TA100, +S9, 5 µM): 1.0; revertant His+ colonies, mean ± SD (S. typhimurium TA100; TA100, +S9, 5 µM): 110 ± 8; IF (induction factor) (S. typhimurium TA100; TA100, +S9, 50 µM): 2.5; revertant His+ colonies, mean ± SD (S. typhimurium TA100; TA100, +S9, 50 µM): 269 ± 13; IF (induction factor) (S. typhimurium TA100; TA100, +S9, 500 µM): 8.6; revertant His+ colonies, mean ± SD (S. typhimurium TA100; TA100, +S9, 500 µM): 907 ± 10; Mutagenicity in the Ames test (verdict) (S. typhimurium TA100; TA100, absence or presence of metabolic activation): mutagenic; Mutagenic potency (slope of the linear portion of the concentration–response function) (S. typhimurium TA100; TA100, −S9): 1789.9 revertants/µM; IF (induction factor) (S. typhimurium TA100; TA100, −S9, 0.5 µM): 1.0; revertant His+ colonies, mean ± SD (S. typhimurium TA100; TA100, −S9, 0.5 µM): 130 ± 6; IF (induction factor) (S. typhimurium TA100; TA100, −S9, 5 µM): 1.6; revertant His+ colonies, mean ± SD (S. typhimurium TA100; TA100, −S9, 5 µM): 217 ± 13; IF (induction factor) (S. typhimurium TA100; TA100, −S9, 50 µM): 6.2; revertant His+ colonies, mean ± SD (S. typhimurium TA100; TA100, −S9, 50 µM): 852 ± 40; IF (induction factor) (S. typhimurium TA100; TA100, −S9, 500 µM): 28.2; revertant His+ colonies, mean ± SD (S. typhimurium TA100; TA100, −S9, 500 µM): 3848 ± 11; IF (induction factor) (S. typhimurium TA100; TA100, −S9, 5000 µM): 53.0; revertant His+ colonies, mean ± SD (S. typhimurium TA100; TA100, −S9, 5000 µM): 7264 ± 62; Mutagen classification according to Claxton et al. (S. typhimurium TA100; TA100, −S9 and +S9): extremely high mutagen
